Test results as given in patent US12084430B2, “Tricyclic urea compounds as JAK2 V617F inhibitors” (Incyte Corporation, priority 2022, dated 2024).
pIC50: −log10 of the molar value. Read-outs that look alike come from different tables or passages of the source.

Columns and labels:
FLT3 = FLT3 enzymatic assay; type: biochemical
Description: Example C. FLT3 Enzymatic Assay
The kinase assays were carried out at room temperature in assay buffer (HEPES 50 mM, pH 7.0, NaN3 0.02%, BSA 0.01%, Orthovanadate 0.1 mM, DTT 1 mM, MgCl2 10 mM) in a final volume of 10 μL. Testing compounds were prepared by serial dilution in DMSO and transferred to the plate wells by ECHO liquid handler (Labcyte) with 0.5% DMSO in the final assay. […]. Reactions were initiated by the addition of 5 μL ATP in assay buffer. The final 10 μL kinase reaction consists of 0.011 nM FLT3, 1 mM ATP, 500 nM TK Substrate-biotin and SEB reagent 62.5 nM in assay buffer. […] The plates were then sealed and centrifuged at 1800 rpm for 2 minutes. After 60 minutes incubation at room temperature, the product activity was determined by measuring the fluorescence at 620 nm and 665 nm on Pherastar microplate reader (BMG Labtech). A ratio is calculated (665/620 nm) for each well. Wells with DMSO only were served as the positive controls and wells containing no ATP were used as negative controls. IC50 determination was performed by fitting the curve of percent control activity versus the log of the compound concentration using the GraphPad Prism 7.0 software.

[1] = system: pSTAT5 signaling in SET-2 cells in whole blood; experiment: pSTAT5 SET-2 whole blood MSD assay; type: cell-based; settings: Homo sapiens, pSTAT5, 2 hour, read-out: SET2 WB IC50
Description: Example F. pSTAT5 SET-2 Whole Blood MSD Assay
SET-2 cells shipped from ABS, RPMI1640 medium, Fetal Bovine Serum from Gibco, Phospho-STAT5a,b Whole Cell Lysate Kit from Mesoscale, Retronectin (Recombinant Human Fibronectin Fragment) from TaKaRa, 96 well cell culture plate flat bottom from Corning, lysis buffer from Cell Signaling Technology, and sterile PBS from Gibco. Whole Blood from by BioIVT.
SET-2 cells were cultured in RPMI media with 20% FBS at 37° C. humidified incubator supplied with 5% CO2. On the day of the assay, 40 uL per well of diluted retronectin working solution was added to sterile 96-well clear flat bottom tissue culture plates (1:200 dilution of retronectin in sterile PBS) and incubated at 37 C for 1 hour. After 1 hour, the retronectin working solution was aspirated and SET-2 cells were seeded at 100,000/well in RPMI+20% FBS. Cells were incubated overnight at 37° C. and 5% CO2. The next day, the medium was removed and 40 μL of diluted compounds in serum-free RPMI and whole blood was added to the cells for a 2 hour incubation at 37° C. and 5% CO2. The compound starting concentration is 20 μM and 2.5 fold serial diluted down to 0.21 nM. The whole blood and compound mixture was then aspirated off using the BlueCat plate washer and washed 1× with PBS. Cells were lysed by adding 40 μL of 3× complete lysis buffer and shaken at room temperature for 45-60 minutes (complete lysis buffer consists of Cell Signaling Technology lysis buffer diluted to 3× and supplemented with Mesoscale's protease inhibitor, phosphatase I inhibitor, and phosphatase II inhibitor). The pSTAT5 MSD plates were blocked by adding 150 μL of Blocker A solution per well to the MSD plates and incubated at room temperature with shaking at 400 rpm for one hour or longer. After blocking, plates were washed 3× with 300 μL/well of IX Tris Wash Buffer. After lysis, added 25 μL per well of lysed sample was added to MSD plate and incubated with shaking at 4° C. wrapped in foil overnight. The next day, plates were washed again and 25 μL/well of diluted 1× Detection Antibody Solution, wrapped in foil, and incubated at room temperature with shaking at 400 rpm for 1 hour. Plates were then washed again and lastly, 150 μL/well of 1× Read Buffer T was added to all wells. Plates were analyzed on MSD Discovery within 5 minutes. […] Data analysis was performed in GraphPad Prism using a 4-parameter fit and data was reported as Average±SD.

[2] = biological target: T1, pseudo-kinase domain (JH2) of human V617F mutant JAK2 (Homo sapiens, UniProt O60674, F794H/V617F/W659A/W777A); experiment: JAK2 LanthaScreen JH2-V617F binding assay; settings: read-out: JH2 V617F Bind IC50
T1 construct: pseudo-kinase domain (JH2, amino-acids 536-812 with 3 surface mutations W659A, W777A, F794H); His (C); purchased BPS Bioscience 79498; host or cells: baculovirus expression system
T1 sequence (O60674 536-812 V617F/W659A/W777A/F794H): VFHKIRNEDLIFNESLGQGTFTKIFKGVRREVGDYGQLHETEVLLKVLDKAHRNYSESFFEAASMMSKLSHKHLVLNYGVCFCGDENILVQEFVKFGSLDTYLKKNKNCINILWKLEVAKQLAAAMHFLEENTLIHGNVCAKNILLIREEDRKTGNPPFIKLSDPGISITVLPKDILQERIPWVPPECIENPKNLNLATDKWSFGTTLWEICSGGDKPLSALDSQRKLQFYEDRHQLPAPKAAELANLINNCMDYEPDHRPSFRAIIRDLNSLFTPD
Description: Example B. JAK2 LanthaScreen JH2-V617F Binding Assay
JAK2 JH2-V617F binding assay utilizes pseudo-kinase domain (JH2, amino-acids 536-812 with 3 surface mutations W659A, W777A, F794H) of human V617F mutant JAK2 expressed as C-terminal His-Avi-tagged, biotinylated protein in a baculovirus expression system (BPS Bioscience, Catalog #79498). The assay was conducted in black 384-well polystyrene plates in a final reaction volume of 20 μL. JAK2 JH2-V617F (0.26 nM) was incubated with compounds (100 nL serially diluted in DMSO) in the presence of 50 nM Fluorescent JAK2-JH2 Tracer (MedChem Express Catalog #HY-102055) and 0.25 nM Streptavidin-Tb cryptate (Cisbio Part #610SATLB) in assay buffer (50 mM Tris, pH=7.5, 10 mM MgCl2, 0.01% Brij-35, 0.1% BSA, 1 mM EGTA, 5% Glycerol and 5 mM DTT). Non-specific binding was accessed in the presence of 2 mM ATP. After incubation for 1 hour at 25° C., LanthaScreen signals were read on a PHERAstar FS plate reader (BMG LABTECH). Data was analyzed with IDBS XLfit and GraphPad Prism 5.0 software using a four parameter dose response curve to determine IC50 for each compound.

SMILES	Selectivity FLT3/JH2 V617F (FLT3)	pIC50 [1]	pIC50 ([2]; Table A)	pIC50 ([2]; Table C)
COc1nn(C)cc1-c1[nH]c2ncc3c(c2c1-c1ccc2c(cnn2C)c1)n(C1CCOCC1)c(=O)n3C [A, reference compound]	* (selectivity of ≤500-fold)	< 5.12		
[2H]C([2H])([2H])n1ncc2cc(-c3c(-c4cn(C)nc4OC)[nH]c4ncc5c(c34)n(C3CCOCC3)c(=O)n5C)ccc21 [B, reference compound]	* (selectivity of ≤500-fold)	< 5.12		
COc1nn(C)cc1-c1[nH]c2ncc3c(c2c1-c1ccc2c(cnn2C)c1)n([C@H]1CC[C@@H](CC#N)CC1)c(=O)n3C [E, reference compound]	* (selectivity of ≤500-fold)			
[2H]C([2H])([2H])n1cc(-c2[nH]c3ncc4c(c3c2-c2ccc3c(c2)COC3(C)C)n([C@@H]2CC[C@@H](NC(=O)OC)C2)c(=O)n4C)c(F)n1 [Example 11, Methyl ((1R,3R)-3-(8-(1,1-dimethyl-1,3-dihydroisobenzofuran-5-yl)-7-(3-fluoro-1-(methyl-d3)-1H-pyrazol-4-yl)-3-methyl-2-oxo-3,6-dihydroimidazo[4,5-d]pyrrolo[2,3-b]pyridin-1(2H)-yl)cyclopentyl)carbamate]	****** (selectivity of >12500-fold)	≥ 5.60	≥ 8.00	≥ 8.00
[2H]C([2H])([2H])n1c(=O)n([C@@H]2CC[C@@H](NC(=O)OC)C2)c2c3c(-c4ccc5c(c4)COC5(C)C)c(-c4cn(CC(F)F)nc4F)[nH]c3ncc21 [Example 12, Methyl ((1R,3R)-3-(7-(1-(2,2-difluoroethyl)-3-fluoro-1H-pyrazol-4-yl)-8-(1,1-dimethyl-1,3-dihydroisobenzofuran-5-yl)-3-(methyl-d3)-2-oxo-3,6-dihydroimidazo[4,5-d]pyrrolo[2,3-b]pyridin-1(2H)-yl)cyclopentyl)carbamate]	****** (selectivity of >12500-fold)	≥ 5.60	≥ 8.00	≥ 8.00
[2H]C([2H])([2H])n1cc(-c2[nH]c3ncc4c(c3c2-c2ccc3c(cnn3C(C)C)c2)n([C@@H]2CC[C@@H](NC(=O)OC)C2)c(=O)n4C)c(F)n1 [Example 16, Methyl ((1R,3R)-3-(7-(3-fluoro-1-(methyl-d3)-1H-pyrazol-4-yl)-8-(1-isopropyl-1H-indazol-5-yl)-3-methyl-2-oxo-3,6-dihydroimidazo[4,5-d]pyrrolo[2,3-b]pyridin-1(2H)-yl)cyclopentyl)carbamate]	***** (selectivity of >5000-fold to ≤12500-fold)	≥ 5.60	≥ 8.00	≥ 8.00
[2H]C([2H])([2H])n1cc(-c2[nH]c3ncc4c(c3c2-c2cc(F)c3c(cnn3C([2H])([2H])[2H])c2)n([C@@H]2CC[C@@H](NC(=O)OC)C2)c(=O)n4C([2H])([2H])[2H])c(F)n1 [Example 17, Methyl ((1R,3R)-3-(8-(7-fluoro-1-(methyl-d3)-1H-indazol-5-yl)-7-(3-fluoro-1-(methyl-d3)-1H-pyrazol-4-yl)-3-(methyl-d3)-2-oxo-3,6-dihydroimidazo[4,5-d]pyrrolo[2,3-b]pyridin-1(2H)-yl)cyclopentyl)carbamate]	****** (selectivity of >12500-fold)	≥ 5.60	≥ 8.00	≥ 8.00
[2H]C([2H])([2H])n1cc(-c2[nH]c3ncc4c(c3c2-c2ccc3c(cnn3CC(F)F)c2)n([C@@H]2CC[C@@H](NC(=O)OC)C2)c(=O)n4C)c(F)n1 [Example 18, Methyl ((1R,3R)-3-(8-(1-(2,2-difluoroethyl)-1H-indazol-5-yl)-7-(3-fluoro-1-(methyl-d3)-1H-pyrazol-4-yl)-3-methyl-2-oxo-3,6-dihydroimidazo[4,5-d]pyrrolo[2,3-b]pyridin-1(2H)-yl)cyclopentyl)carbamate]	****** (selectivity of >12500-fold)	≥ 5.60	≥ 8.00	≥ 8.00
[2H]C([2H])([2H])n1c(=O)n([C@@H]2CC[C@@H](NC(=O)OC)C2)c2c3c(-c4ccc5c(c4)COC5(C)C)c(-c4cn(C([2H])([2H])C([2H])([2H])[2H])nc4F)[nH]c3ncc21 [Example 19, Methyl ((1R,3R)-3-(8-(1,1-dimethyl-1,3-dihydroisobenzofuran-5-yl)-7-(1-(ethyl-d5)-3-fluoro-1H-pyrazol-4-yl)-3-(methyl-d3)-2-oxo-3,6-dihydroimidazo[4,5-d]pyrrolo[2,3-b]pyridin-1(2H)-yl)cyclopentyl)carbamate]	****** (selectivity of >12500-fold)	≥ 5.60	≥ 8.00	≥ 8.00
[2H]C([2H])([2H])n1c(=O)n([C@@H]2CC[C@@H](NC(=O)OC)C2)c2c3c(-c4ccc5c(c4)COC5(C)C)c(-c4cn(CC)nc4F)[nH]c3ncc21 [Example 20, Methyl ((1R,3R)-3-(8-(1,1-dimethyl-1,3-dihydroisobenzofuran-5-yl)-7-(1-ethyl-3-fluoro-1H-pyrazol-4-yl)-3-(methyl-d3)-2-oxo-3,6-dihydroimidazo[4,5-d]pyrrolo[2,3-b]pyridin-1(2H)-yl)cyclopentyl)carbamate]	****** (selectivity of >12500-fold)	≥ 5.60	≥ 8.00	≥ 8.00
[2H]C([2H])([2H])n1ncc2cc(-c3c(-c4cn(C([2H])(C([2H])([2H])[2H])C([2H])([2H])[2H])nc4F)[nH]c4ncc5c(c34)n([C@@H]3CC[C@@H](NC(=O)OC)C3)c(=O)n5C([2H])([2H])[2H])ccc21 [Example 21, Methyl ((1R,3R)-3-(7-(3-fluoro-1-(propan-2-yl-d7)-1H-pyrazol-4-yl)-3-(methyl-d3)-8-(1-(methyl-d3)-1H-indazol-5-yl)-2-oxo-3,6-dihydroimidazo[4,5-d]pyrrolo[2,3-b]pyridin-1(2H)-yl)cyclopentyl)carbamate]	****** (selectivity of >12500-fold)	≥ 5.60	≥ 8.00	≥ 8.00
